Patent publication US20210186978A1, “COMBINATION THERAPY” (TARVEDA THERAPEUTICS, INC., priority 2018, published 2021)

Key:
[1] = system: NCI-H69 tumors (small cell lung cancer); experiment: Low doses of Conjugate 1 with Vorinostat, same-day start or pre-treatment, in NCI-H69 model; assay type: in vivo; conditions: mice
Procedure: In a further study with NCI-H69 model (small cell lung cancer), low doses of Conjugate 1 were given to tumor bearing mice and tumor regression was tracked. 1/3 MTD of Conjugate 1 is 0.7 mpk. 1/6 MTD of Conjugate 1 is 0.35 mpk.
Mice bearing NCI-H69 tumors were treated with a combination of Vorinostat and Conjugate 1 starting on the same day or pre-treated with Vorinostat for 4 days IP then administered low doses of Conjugate 1. In total, mice received 10 total doses of Vorinostat (q.d×5) and 2 doses of Conjugate 1 (q.w.×2).
. No significant body weight loss was observed during these studies. […]

[2] = system: NCI-H727 (lung carcinoid) xenograft; experiment: Conjugate 1 and Vorinostat combination in NCI-H727 xenograft model; assay type: in vivo, mice; conditions: very low SSTR2 (IRS 1)
NCI-H69 cells = experiment: Conjugate 1 potency in vitro with and without Vorinostat pre-treatment; assay type: cell-based
Procedure: In a further study, whether increased SSTR2 expression would result in better delivery of Conjugate 1 to small cell lung cancer cells (NCI-H69) was evaluated. Conjugate 1 potency with Vorinostat pre-treatment was compared with Conjugate 1 potency without Vorinostat pre-treatment. […].

[3] = system: xenograft models that over-express SSTR2; experiment: Preclinical single agent studies in xenograft models that over-express SSTR2; assay type: in vivo; conditions: single agent Conjugate 1 treatment
Source text: The targeting peptide of Conjugate 1 selectively binds to SSTR2, triggers receptor internalization leading to the accumulation of the DM1 to provide antitumor activity by disrupting microtubule networks causing apoptosis and mitotic catastrophe.

[4] = Conjugate 1 tumor uptake with Vorinostat pre-treatment; assay type: in vivo, mice bearing NCI-H69 tumors; conditions: Vorinostat pre-treatment vs none; P=0.03
Procedure: In vivo, mice bearing NCI-H69 tumors were pre-treated with Vorinostat then administered Conjugate 1. Tumors were analyzed for Conjugate 1 concentrations.

SSTR2 = SSTR2 expression by IHC after Vorinostat treatment; assay type: in vivo, mice bearing NCI-H69 tumors
Procedure: Mice bearing NCI-H69 tumors (small cell lung cancer) were treated with Vorinostat for 10 days IP (q.d.×5). Tumors were collected and processed for SSTR2 expression by IHC.
On Day 6 the IRS score doubled from 6 in the vehicle to 12 in the treated group. The immunoreactive score (IRS) is determined by multiplying the staining intensity in four gradations with the percentage of positive cells in five gradations.

In the case of `COc1cc2cc(c1Cl)N(C)C(=O)C[C@H](OC(=O)[C@H](C)N(C)C(=O)CCSSC[C@H](NC(=O)[C@@H]1CSSC[C@H](NC(=O)[C@H](N)Cc3ccccc3)C(=O)N[C@@H](Cc3ccc(O)cc3)C(=O)N[C@H](Cc3c[nH]c4ccccc34)C(=O)N[C@@H](CCCCN)C(=O)N[C@@H]([C@@H](C)O)C(=O)N1)C(N)=O)C[C@]1(C)O[C@H]1[C@H](C)[C@@H]1C[C@@](O)(NC(=O)O1)[C@H](OC)C/C=C/C=C(\C)C2` [Conjugate 1], the “1/3 MTD” value [1] is reported as 0.7 mpk, the “1/6 MTD” value [1] is reported as 0.35 mpk and the “activity as a single agent” value [2] is reported as “no activity”. For the same molecule, the “Conjugate 1 potency” value (NCI-H69 cells; with Vorinostat pre-treatment vs without, NCI-H69 cells in vitro) was “an increase in Conjugate 1 potency was observed”, the tumor regression [3] was “complete and sustained tumor regression” and the “Conjugate 1 concentrations in tumors” value [4] was “statistically significant (P=0.03) increase”.

With `O=C(CCCCCCC(=O)Nc1ccccc1)NO` [Vorinostat, vorinostat] the “IRS score (SSTR2 expression in tumors)” value (SSTR2; NCI-H69 tumors, Day 6, Vorinostat IP q.d.x5, vehicle 6) was 12, the “SSTR2 expression in normal spleen tissues” value (SSTR2; normal spleen after Vorinostat treatment) was “an increase in expression was not observed” and the NCI-H69 cell proliferation (NCI-H69 cells; Vorinostat alone) was “no effect”.
